This note sets out measurements from patent US7737136B2 (N.V. Organon, priority 2002, dated 2010).

For orientation: EC50 means the concentration that produces a half-maximal response.

One test deals with T1, human progesterone receptor-B (Homo sapiens, UniProt P06401).
T1 construct: expressed in transfected cells; host or cells: Chinese hamster ovary (CHO) cells, line CHO-PRB-pMMTV-LUC 1E2-A2
T1 sequence (P06401 1-933): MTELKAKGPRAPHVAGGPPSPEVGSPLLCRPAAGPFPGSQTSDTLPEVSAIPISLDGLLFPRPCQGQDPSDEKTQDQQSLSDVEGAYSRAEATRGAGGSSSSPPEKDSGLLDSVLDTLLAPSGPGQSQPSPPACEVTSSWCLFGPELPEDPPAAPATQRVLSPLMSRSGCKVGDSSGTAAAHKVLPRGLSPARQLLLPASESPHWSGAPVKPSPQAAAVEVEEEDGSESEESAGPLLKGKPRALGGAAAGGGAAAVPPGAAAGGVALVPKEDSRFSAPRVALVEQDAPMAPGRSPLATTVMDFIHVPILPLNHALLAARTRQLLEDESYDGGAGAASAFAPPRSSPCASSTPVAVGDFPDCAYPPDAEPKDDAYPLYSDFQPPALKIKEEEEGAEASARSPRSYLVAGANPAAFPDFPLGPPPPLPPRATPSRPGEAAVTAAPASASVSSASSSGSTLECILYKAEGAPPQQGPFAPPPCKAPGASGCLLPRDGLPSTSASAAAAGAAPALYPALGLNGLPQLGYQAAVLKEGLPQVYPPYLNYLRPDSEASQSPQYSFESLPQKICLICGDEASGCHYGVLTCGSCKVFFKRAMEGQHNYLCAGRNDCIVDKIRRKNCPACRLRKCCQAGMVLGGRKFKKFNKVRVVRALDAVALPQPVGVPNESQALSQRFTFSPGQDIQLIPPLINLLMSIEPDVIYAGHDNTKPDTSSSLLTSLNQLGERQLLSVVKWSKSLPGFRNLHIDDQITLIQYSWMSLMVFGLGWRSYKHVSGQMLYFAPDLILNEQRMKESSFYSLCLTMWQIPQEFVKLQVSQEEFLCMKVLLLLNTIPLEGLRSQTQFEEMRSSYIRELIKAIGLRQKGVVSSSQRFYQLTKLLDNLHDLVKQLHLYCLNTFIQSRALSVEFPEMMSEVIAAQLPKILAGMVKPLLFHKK
As to the kind of experiment: Progesterone receptor-B transactivation assay, progestagenic (agonist) activity, CHO-PRB-pMMTV-LUC 1E2-A2 cells. It counts as cell-based.
Conditions: not given
How it is done:
The (anti-)progestagenic activity of a compound of the invention (EC 50 and intrinsic activity) was determined in an in vitro bioassay of Chinese hamster ovary (CHO) cells stably transfected with the human progesterone receptor-B expression plasmid and with a reporter plasmid in which the MMTV-promoter is linked to the luciferase reporter gene. […] The cells were cultured with charcoal-treated supplemented defined bovine calf serum from Hyclone (Utah, USA) in Dulbecco's Modified Eagles Medium/Nutrient Mixture F-12 (DMEM/HAM F12 in ratio 1:1) from Gibco (Paisley, UK).
Regarding `N[C@H]1CCCN2c3cc(F)ccc3Oc3ccccc3[C@H]12` (relative stereo) [Example 1, trans-7-Fluoro-2,3,4,14b-tetrahydro-1H-dibenzo[b,f]pyrido[1,2-d][1,4]oxazepine-1-amine], the concentration giving a half-maximal response (EC50) was 100 to 10000 nM.
The same measure, in the same setting: with `O=C(CF)N[C@H]1CCCN2c3cc(Cl)ccc3Oc3ccccc3[C@H]12` (relative stereo) [Example 11, trans-N-(7-Chloro-2,3,4,14b-tetrahydro-1H-dibenzo[b,f]pyrido[1,2-d][1,4]oxazepin-1-yl)-2-fluoroacetamide] the figure was 10 to 100 nM.
Still for that read-out and setting: with `CCCN[C@H]1CCCN2c3cc(Cl)ccc3Oc3ccccc3[C@H]12` (relative stereo) [Example 37, trans-N-Propyl-7-chloro-2,3,4,14b-tetrahydro-1H-dibenzo[b,f]pyrido[1,2-d][1,4]oxazepine-1-amine] the figure was 100 to 10000 nM.

The same test, now with this note: CHO cells stably transfected with human progesterone receptor-B and MMTV-luciferase reporter; read-out: Progestagenic activity EC50.
With `N[C@H]1CCCN2c3cc(Cl)ccc3Oc3ccccc3[C@H]12` (relative stereo) [Example 3, trans-7-Chloro-2,3,4,14b-tetrahydro-1H-dibenzo[b,f]pyrido[1,2-d][1,4]oxazepine-1-amine], the 50% effective concentration (EC50) lay within 100 to 10000 nM.
For the compound `O=C(N[C@H]1CCCN2c3cc(Cl)ccc3Sc3ccccc3[C@H]12)C(F)(F)F` (relative stereo) [Example 6, trans-2,2,2-Trifluoro-N-(7-chloro-2,3,4,14b-tetrahydro-1H-dibenzo[b,f]pyrido[1,2-d][1,4]thiazepin-1-yl)acetamide], the EC50 was less than 10 nM.
In the case of `NCC(=O)N[C@H]1CCCN2c3cc(Cl)ccc3Oc3ccccc3[C@H]12` (relative stereo) [Example 16, trans-2-Amino-N-(7-chloro-2,3,4,14b-tetrahydro-1H-dibenzo[b,f]pyrido[1,2-d][1,4]oxazepin-1-yl)acetamide], the EC50 was in the range of 100 to 10000 nM.
In the case of `S=CN[C@H]1CCCN2c3cc(Cl)ccc3Oc3ccccc3[C@H]12` (relative stereo) [Example 18, trans-N-(7-Chloro-2,3,4,14b-tetrahydro-1H-dibenzo[b,f]pyrido[1,2-d][1,4]oxazepin-1-yl)methanethioamide], the EC50 fell in the range of 100 to 10000 nM.
Same read-out and setting: with `FC(F)(F)C(=S)N[C@H]1CCCN2c3cc(Cl)ccc3Oc3ccccc3[C@H]12` (relative stereo) [Example 19] the figure was less than 10 nM.
Same read-out and setting: with `FC(F)C(=S)N[C@H]1CCCN2c3cc(Cl)ccc3Oc3ccccc3[C@H]12` (relative stereo) [Example 23] the figure was less than 10 nM; with `FC(F)(F)C(=S)N[C@H]1CCCN2c3ccccc3Oc3ccccc3[C@H]12` (relative stereo) [Example 25], less than 10 nM; with `FC(F)(F)C(=S)N[C@H]1CCCN2c3c(ccc(Cl)c3Cl)Oc3ccccc3[C@H]12` (relative stereo) [Example 26], less than 10 nM.
Same read-out and setting: with `NCC(=S)N[C@H]1CCCN2c3cc(Cl)ccc3Oc3ccccc3[C@H]12` (relative stereo) [Example 27] the figure was 100 to 10000 nM; with `CN(C(=O)C(F)(F)F)[C@H]1CCCN2c3cc(Cl)ccc3Oc3ccccc3[C@H]12` (relative stereo) [Example 28, trans-N-(7-Chloro-2,3,4,14b-tetrahydro-1H-dibenzo[b,f]pyrido[1,2-d][1,4]oxazepin-1-yl)-2,2,2-trifluoro-N-methylacetamide], 100 to 10000 nM; with `O=C(N[C@H]1CCCN2c3cc(Cl)ccc3Oc3ccccc3[C@H]12)OCCl` (relative stereo) [Example 30, Trans-(7-Chloro-2,3,4,14b-tetrahydro-1H-dibenzo[b,f]pyrido[1,2-d][1,4]oxazepin-1-yl)carbamic Acid Chloromethyl Ester], 100 to 10000 nM.
For `CC(C)CN[C@H]1CCCN2c3cc(Cl)ccc3Oc3ccccc3[C@H]12` (relative stereo) [Example 36, trans-N-(2-Methylpropyl)-7-chloro-2,3,4,14b-tetrahydro-1H-dibenzo[b,f]pyrido[1,2-d][1,4]oxazepine-1-amine], the EC50 was in the range of 100 to 10000 nM.
Consider `O=C(N[C@H]1CCCN2c3c(ccc(Cl)c3Cl)Oc3ccccc3[C@H]12)C(F)(F)F` (relative stereo) [Example 38B, trans-N-(6,7-Dichloro-2,3,4,14b-tetrahydro-1H-dibenzo[b,f]pyrido[1,2-d][1,4]oxazepin-1-yl)-2,2,2-trifluoroacetamide], for which the EC50 was less than 10 nM.
Still for that read-out and setting: with `O=C(N[C@H]1CCCN2c3c(Cl)cccc3Oc3ccccc3[C@H]12)C(F)(F)F` (relative stereo) [Example 42B] the figure was 100 to 10000 nM; with `CS(=O)(=O)N(c1cc2c(cc1Cl)N1CCC[C@H](NC(=O)C(F)(F)F)[C@H]1c1ccccc1O2)S(C)(=O)=O` (relative stereo) [Example 44, trans-N-(7-Chloro-2,3,4,14b-tetrahydro-8-[bis(methylsulfonyl)amino]-1H-dibenzo[b,f]pyrido[1,2-d][1,4]oxazepin-1-yl)-2,2,2-trifluoroacetamide], 100 to 10000 nM.
Still for that read-out and setting: with `O=C(N[C@H]1CCCN2c3cc(Cl)c(NS(=O)(=O)c4ccccc4)cc3Oc3ccccc3[C@H]12)C(F)(F)F` (relative stereo) [Example 45, trans-N-(7-Chloro-2,3,4,14b-tetrahydro-8-[(phenylsulfonyl)amino]-1H-dibenzo[b,f]pyrido[1,2-d][1,4]oxazepin-1-yl)-2,2,2-trifluoroacetamide] the figure was 10 to 100 nM.
Same read-out and setting: with `CC(C)(C)OC(=O)Nc1cc2c(cc1Cl)N1CCC[C@H](NC(=O)C(F)(F)F)[C@H]1c1ccccc1O2` (relative stereo) [Example 46, trans-N-(7-Chloro-2,3,4,14b-tetrahydro-1-(2,2,2-trifluoroacetylamino)1H-dibenzo[b,f]pyrido[1,2-d][1,4]oxazepin-8-yl)carbamic Acid 1,1-dimethylethyl Ester] the figure was 10 to 100 nM; with `CC(=O)N[C@H]1CCCN2c3c(ccc(Cl)c3Cl)Oc3ccccc3[C@H]12` (relative stereo) [Example 47, trans-N-(6,7-Dichloro-2,3,4,14b-tetrahydro-1H-dibenzo[b,f]pyrido[1,2-d][1,4]oxazepin-1-yl)acetamide], less than 10 nM.
Regarding `O=C(N[C@H]1CCCN2c3c(Br)cccc3Oc3ccccc3[C@H]12)C(F)(F)F` (relative stereo) [Example 51, trans-N-(6-Bromo-2,3,4,14b-tetrahydro-1H-dibenzo[b,f]pyrido[1,2-d][1,4]oxazepin-1-yl)-2,2,2-trifluoroacetamide], the EC50 was less than 10 nM.
The same measure, in the same setting: with `CC(=O)c1cccc2c1N1CCC[C@H](NC(=O)C(F)(F)F)[C@H]1c1ccccc1O2` (relative stereo) [Example 52, trans-N-(6-Acetyl-2,3,4,14b-tetrahydro-1H-dibenzo[b,f]pyrido[1,2-d][1,4]oxazepin-1-yl)-2,2,2-trifluoroacetamide] the figure was less than 10 nM; with `N#Cc1cccc2c1N1CCC[C@H](NC(=O)C(F)(F)F)[C@H]1c1ccccc1O2` (relative stereo) [Example 53, trans-2,3,4,14b-Tetrahydro-1-[(trifluoroacetyl)amino]-1H-dibenzo[b,f]pyrido[1,2-d][1,4]oxazepine-6-carbonitrile], less than 10 nM.
For `C=Cc1cccc2c1N1CCC[C@H](NC(=O)C(F)(F)F)[C@H]1c1ccccc1O2` (relative stereo) [Example 54, trans-N-(6-Ethenyl-2,3,4,14b-tetrahydro-1H-dibenzo[b,f]pyrido[1,2-d][1,4]oxazepin-1-yl)-2,2,2-trifluoroacetamide], the EC50 is less than 10 nM.
